Data on 14 molecules can be found in patent publication US20230114728A1 (Venatorx Pharmaceuticals, Inc., priority 2019, published 2023).

One assay addresses T1, E. coli K12 PBP3 (Escherichia coli, UniProt P0AD68).
T1 construct: made in house
In words: biochemical. The class given is binding. The procedure, abridged:
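A. baumannii PBP2 (2.5 μM) and PBP3 (0.2 μM) were run in 25 mM Tris pH 8.0 buffer with Tween 20; E. coli PBP3 (1.5 μM) and N. gonorrhoeae PBP2 ([…]) in 50 mM Hepes pH 8.0 buffer.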

Another assay has as its system E. coli ATCC 25922. The experiment in a line: Broth microdilution MIC in CAMHB. The note with it: Escherichia coli, ATCC25922; E. coli ATCC 25922; MHB; read-out: Minimum Inhibitory Concentration, E. coli 25922. In kind it is cell-based. In outline:
(§1)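 Lowest compound concentration with no visible growth after 16-20 h at 37 °C defines MIC. Plates of 2-fold serial dilutions in cation-adjusted Mueller Hinton broth received 2-8×10^5 CFU/mL of exponentially grown cells, per CLSI methods; panel spans reference, hyper-permeable and efflux-pump-deleted strains.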

Another assay relates to E. coli AG100A. The experiment in a line: Broth microdilution MIC in CAMHB. The class given is cell-based. The note with it: Escherichia coli, read-out: Minimum Inhibitory Concentration, E. coli AG100A. The procedure, abridged: as §1
The next assay deals with E. coli AG100. In words: Broth microdilution MIC in CAMHB. The class given is cell-based. The following applies: Escherichia coli; E. coli AG100 (wild-type parent); MHB; read-out: Minimum Inhibitory Concentration, E. coli AG100. In outline: as §1
Assay [1] relates to K. pneumoniae 848844 producing SHV-11 and KPC-2. The experiment in a line: Broth microdilution MIC in CAMHB. The class given is cell-based. The note with it: Klebsiella pneumoniae, read-out: Minimum Inhibitory Concentration, K. pneumoniae 848844. The procedure, abridged: as §1
Assay [2] relates to K. pneumoniae SI-117 producing VIM-1. The experiment in a line: Broth microdilution MIC in CAMHB. In kind it is cell-based. The following applies: Klebsiella pneumoniae, read-out: Minimum Inhibitory Concentration, K. pneumoniae SI-117. The procedure, abridged: as §1
For a further assay, the system named is E. coli D22. In words: Broth microdilution MIC in CAMHB. The class given is cell-based. The note with it: Escherichia coli; E. coli D22 (hyper-permeable); MHB; read-out: Minimum Inhibitory Concentration, E. coli D22. The procedure, abridged:
as §1

A further assay concerns P. aeruginosa ATCC 27853. The experiment in a line: Broth microdilution MIC in CAMHB. In kind it is cell-based. The note with it: Pseudomonas aeruginosa, ATCC27853; MHB; read-out: Minimum Inhibitory Concentration, P. aeruginosa ATCC 27853. The procedure, abridged: as §1
For a further assay, the target named is T2, P. aeruginosa PBP3 (Pseudomonas aeruginosa, UniProt G3XD46).
T2 construct: made in house
In words: Bocillin-FL fluorescence polarization competition binding assay, P. aeruginosa PBP3. The following applies: fluorescence polarization competition binding assay using Bocillin-FL. The procedure, abridged: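 Inhibitor competition with Bocillin-FL for P. aeruginosa PBP3 was followed by fluorescence polarization on a Cytation3 (BioTek) reader, using g-factor 0.96, 490 nm excitation and 520 nm emission. The enzyme was at 0.75 μM and the probe at 0.1 μM in Hepes/NaCl/glycerol buffer, 80 μl per well. FP was recorded immediately after probe addition for up to 60 minutes. Potency was expressed as EC50, the concentration that reduces bound probe by 50%.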

≈ marks a conversion by molar mass, not a printed value.

T2 sequence (G3XD46 whole entry): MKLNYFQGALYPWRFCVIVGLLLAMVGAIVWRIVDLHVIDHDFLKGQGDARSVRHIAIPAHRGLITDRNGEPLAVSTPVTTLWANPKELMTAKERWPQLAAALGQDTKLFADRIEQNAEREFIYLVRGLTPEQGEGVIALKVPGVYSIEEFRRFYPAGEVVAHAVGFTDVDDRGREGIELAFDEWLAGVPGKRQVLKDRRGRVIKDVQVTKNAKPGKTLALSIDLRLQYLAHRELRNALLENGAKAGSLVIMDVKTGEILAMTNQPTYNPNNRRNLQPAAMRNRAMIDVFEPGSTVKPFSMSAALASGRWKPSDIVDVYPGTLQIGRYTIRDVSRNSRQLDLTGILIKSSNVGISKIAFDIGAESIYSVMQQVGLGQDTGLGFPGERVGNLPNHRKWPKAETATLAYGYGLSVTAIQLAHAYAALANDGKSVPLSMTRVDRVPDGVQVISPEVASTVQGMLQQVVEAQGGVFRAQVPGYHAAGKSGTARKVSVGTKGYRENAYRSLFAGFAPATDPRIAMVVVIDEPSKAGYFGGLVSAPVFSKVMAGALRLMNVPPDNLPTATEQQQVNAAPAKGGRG
T1 sequence (P0AD68 1-577): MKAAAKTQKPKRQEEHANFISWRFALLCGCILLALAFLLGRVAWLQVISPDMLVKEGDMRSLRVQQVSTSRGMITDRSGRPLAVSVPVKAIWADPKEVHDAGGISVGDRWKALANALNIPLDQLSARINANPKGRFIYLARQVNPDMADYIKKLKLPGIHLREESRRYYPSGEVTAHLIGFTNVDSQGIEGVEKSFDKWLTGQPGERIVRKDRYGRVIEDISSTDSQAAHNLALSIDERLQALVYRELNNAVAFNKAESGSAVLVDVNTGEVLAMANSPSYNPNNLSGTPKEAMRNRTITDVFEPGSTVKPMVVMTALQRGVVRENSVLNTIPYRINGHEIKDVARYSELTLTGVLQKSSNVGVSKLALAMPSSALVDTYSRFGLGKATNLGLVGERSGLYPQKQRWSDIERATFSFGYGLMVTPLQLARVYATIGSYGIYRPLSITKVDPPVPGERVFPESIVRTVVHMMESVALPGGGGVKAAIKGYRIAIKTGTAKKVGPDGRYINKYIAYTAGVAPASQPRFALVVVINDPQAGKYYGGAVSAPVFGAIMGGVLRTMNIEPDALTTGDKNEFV

At E. coli K12 PBP3, `CCN1CCN(C(=O)N[C@@H](C(=O)N[C@H]2Cc3cccc(C(=O)O)c3OB2O)c2c(O)cc(O)cc2F)C(=O)C1=O` (single isomer, unassigned) [Example 182] registered an EC50 of under 30 µM. Moreover, the MIC in the assay with E. coli ATCC 25922 was 8 to 16 µg/mL (≈ 14.3 to 28.7 µM); with E. coli AG100A it was 0.5 to 1 µg/mL (≈ 0.896 to 1.79 µM); in the assay on E. coli AG100 it was 8 to 16 µg/mL (≈ 14.3 to 28.7 µM); in [1] it was 32 to 64 µg/mL (≈ 57.3 to 115 µM); in assay [2] it was 32 to 64 µg/mL (≈ 57.3 to 115 µM); with E. coli D22, 0.5 to 1 µg/mL (≈ 0.896 to 1.79 µM). Besides, the MIC in the assay with P. aeruginosa ATCC 27853 was over 128 µg/mL.
`CCN1CCN(C(=O)N[C@@H](C(=O)N[C@H]2Cc3ccc(F)c(C(=O)O)c3OB2O)c2c(Cl)cc(O)c(O)c2F)C(=O)C1=O` (single isomer, unassigned) [Example 207]: the “P. aeruginosa PBP3 Potency” value at P. aeruginosa PBP3 is “D (D represents a potency <10 μM)”. Further, the EC50 on E. coli K12 PBP3 was under 30 µM.
On to `O=C(NCCCN1CCN(C(=O)NC(C(=O)N[C@H]2Cc3cccc(C(=O)O)c3OB2O)c2ncc(O)cc2F)C(=O)C1=O)c1ccc(O)c(O)c1Cl` (stereo partly drawn) [Example 1, (3R)-3-(2-(4-(3-(2-chloro-3,4-dihydroxybenzamido)propyl)-2,3-dioxopiperazine-1-carboxamido)-2-(3-fluoro-5-hydroxypyridin-2-yl)acetamido)-2-hydroxy-3,4-dihydro-2H-benzo[e][1,2]oxaborinine-8-carboxylic acid], for which, on P. aeruginosa PBP3, the “P. aeruginosa PBP3 Potency” value is recorded as “D (D represents a potency <10 μM)”. For the same molecule, the EC50 at E. coli K12 PBP3 was under 30 µM. For the same molecule, the MIC was over 128 µg/mL in the assay with E. coli ATCC 25922; 8 to 16 µg/mL (≈ 10.8 to 21.5 µM) with E. coli AG100A; 32 to 64 µg/mL (≈ 43.1 to 86.2 µM) with E. coli AG100; 32 to 64 µg/mL (≈ 43.1 to 86.2 µM) in [1]; 32 to 64 µg/mL (≈ 43.1 to 86.2 µM) in [2]; 8 to 16 µg/mL (≈ 10.8 to 21.5 µM) in the assay on E. coli D22.
For the molecule `C[C@H]1CN(CCNC(=O)c2ccc(O)c(O)c2Cl)C(=O)C(=O)N1C(=O)NC(C(=O)N[C@H]1Cc2cccc(C(=O)O)c2OB1O)c1ncc(O)cc1F` (stereo partly drawn) [Example 2, (3R)-3-(2-((S)-4-(2-(2-chloro-3,4-dihydroxybenzamido)ethyl)-6-methyl-2,3-dioxopiperazine-1-carboxamido)-2-(3-fluoro-5-hydroxypyridin-2-yl)acetamido)-2-hydroxy-3,4-dihydro-2H-benzo[e][1,2]oxaborinine-8-carboxylic acid], the “P. aeruginosa PBP3 Potency” value at P. aeruginosa PBP3 was “D (D represents a potency <10 μM)”. Further, the EC50 on E. coli K12 PBP3 is under 30 µM. The MIC with E. coli ATCC 25922 is 8 to 16 µg/mL (≈ 10.8 to 21.5 µM); with E. coli AG100A, 0.5 to 1 µg/mL (≈ 0.673 to 1.35 µM); with E. coli AG100, 2 to 4 µg/mL (≈ 2.69 to 5.38 µM); in [1] it was 8 to 16 µg/mL (≈ 10.8 to 21.5 µM); in [2], 8 to 16 µg/mL (≈ 10.8 to 21.5 µM); with E. coli D22 it was 2 to 4 µg/mL (≈ 2.69 to 5.38 µM).
As to `O=C(NCCCN1CCN(C(=O)NC(C(=O)N[C@H]2Cc3ccc(F)c(C(=O)O)c3OB2O)c2ncc(O)cc2F)C(=O)C1=O)c1ccc(O)c(O)c1Cl` (stereo partly drawn) [Example 3, (3R)-3-(2-(4-(3-(2-chloro-3,4-dihydroxybenzamido)propyl)-2,3-dioxopiperazine-1-carboxamido)-2-(3-fluoro-5-hydroxypyridin-2-yl)acetamido)-7-fluoro-2-hydroxy-3,4-dihydro-2H-benzo[e][1,2]oxaborinine-8-carboxylic acid], the “P. aeruginosa PBP3 Potency” value on P. aeruginosa PBP3 is given as “D (D represents a potency <10 μM)”. In addition, on E. coli K12 PBP3, the EC50 was under 30 µM. For the same molecule, the MIC in the assay on E. coli ATCC 25922 was over 128 µg/mL; in the assay with E. coli AG100A, 32 to 64 µg/mL (≈ 42.1 to 84.1 µM); in the assay with E. coli AG100, 32 to 64 µg/mL (≈ 42.1 to 84.1 µM); in assay [1] it was 32 to 64 µg/mL (≈ 42.1 to 84.1 µM); in assay [2], over 128 µg/mL; in the assay with E. coli D22, 32 to 64 µg/mL (≈ 42.1 to 84.1 µM).
As for `Nc1nc(C(NC(=O)N2CCN(CCNC(=O)c3ccc(O)c(O)c3Cl)C(=O)C2=O)C(=O)N[C@H]2Cc3ccc(F)c(C(=O)O)c3OB2O)c(F)s1` (stereo partly drawn) [Example 4, (3R)-3-(2-(2-amino-5-fluorothiazol-4-yl)-2-(4-(2-(2-chloro-3,4-dihydroxybenzamido)ethyl)-2,3-dioxopiperazine-1-carboxamido)acetamido)-7-fluoro-2-hydroxy-3,4-dihydro-2H-benzo[e][1,2]oxaborinine-8-carboxylic acid], the “P. aeruginosa PBP3 Potency” value at P. aeruginosa PBP3 was “D (D represents a potency <10 μM)”. The concentration for a half-maximal effect (EC50) at E. coli K12 PBP3 was under 30 µM.
For `O=C(NCCN1CCN(C(=O)NC(C(=O)N[C@H]2Cc3ccc(F)c(C(=O)O)c3OB2O)c2ncc(O)cc2F)C(=O)C1=O)c1c(F)cc(O)c(O)c1Cl` (stereo partly drawn) [Example 5, (3R)-3-(2-(4-(2-(2-chloro-6-fluoro-3,4-dihydroxybenzamido)ethyl)-2,3-dioxopiperazine-1-carboxamido)-2-(3-fluoro-5-hydroxypyridin-2-yl)acetamido)-7-fluoro-2-hydroxy-3,4-dihydro-2H-benzo[e][1,2]oxaborinine-8-carboxylic acid], the “P. aeruginosa PBP3 Potency” value on P. aeruginosa PBP3 is “D (D represents a potency <10 μM)”. For the same molecule, the EC50 at E. coli K12 PBP3 is under 30 µM.
For `Nc1nc(/C(=N/OC[C@H](NC(=O)c2ccc(O)c(O)c2Cl)C(=O)O)C(=O)N[C@H]2Cc3cccc(C(=O)O)c3OB2O)cs1` [Example 6, (R)-3-((Z)-2-(2-aminothiazol-4-yl)-2-(((S)-2-carboxy-2-(2-chloro-3,4-dihydroxybenzamido)ethoxy)imino)acetamido)-2-hydroxy-3,4-dihydro-2H-benzo[e][1,2]oxaborinine-8-carboxylic acid], in that order: “D (D represents a potency <10 μM)” and 30 to 500 µM.
For `NCCCN1CCN(C(=O)N[C@@H](C(=O)N[C@H]2Cc3cc(Cl)c(F)c(C(=O)O)c3OB2O)c2c(F)cc(O)c(O)c2Cl)C(=O)C1=O` [Example 190, (R)-3-((R)-2-(4-(3-aminopropyl)-2,3-dioxopiperazine-1-carboxamido)-2-(2-chloro-6-fluoro-3,4-dihydroxyphenyl)acetamido)-6-chloro-7-fluoro-2-hydroxy-3,4-dihydro-2H-benzo[e][1,2]oxaborinine-8-carboxylic acid], the “P. aeruginosa PBP3 Potency” value on P. aeruginosa PBP3 is recorded as “D (D represents a potency <10 μM)”. The molecule also had an EC50 on E. coli K12 PBP3 of under 30 µM.
In the case of `CCN1CCN(C(=O)N[C@@H](C(=O)N[C@H]2Cc3cc(Cl)c(F)c(C(=O)O)c3OB2O)c2c(F)cc(O)c(O)c2Cl)C(=O)C1=O` [Example 191, (R)-6-chloro-3-((R)-2-(2-chloro-6-fluoro-3,4-dihydroxyphenyl)-2-(4-ethyl-2,3-dioxopiperazine-1-carboxamido)acetamido)-7-fluoro-2-hydroxy-3,4-dihydro-2H-benzo[e][1,2]oxaborinine-8-carboxylic acid], on P. aeruginosa PBP3, the “P. aeruginosa PBP3 Potency” value is given as “D (D represents a potency <10 μM)”. At E. coli K12 PBP3, the EC50 is under 30 µM.
For `CS(=O)(=O)N1CCN(C(=O)NC(C(=O)N[C@H]2Cc3ccc(F)c(C(=O)O)c3OB2O)c2c(Cl)cc(O)c(O)c2F)C1=O` (stereo partly drawn) [Example 208, (3R)-3-(2-(6-chloro-2-fluoro-3,4-dihydroxyphenyl)-2-(3-(methylsulfonyl)-2-oxoimidazolidine-1-carboxamido)acetamido)-7-fluoro-2-hydroxy-3,4-dihydro-2H-benzo[e][1,2]oxaborinine-8-carboxylic acid], in that order: “D (D represents a potency <10 μM)” and under 30 µM.
With `CCN1CCN(C(=O)N[C@H](C(=O)N[C@H]2Cc3ccc(F)c(C(=O)O)c3OB2O)c2ccc(O)c(O)c2)C(=O)C1=O` [Example 210, (R)-3-((S)-2-(3,4-dihydroxyphenyl)-2-(4-ethyl-2,3-dioxopiperazine-1-carboxamido)acetamido)-7-fluoro-2-hydroxy-3,4-dihydro-2H-benzo[e][1,2]oxaborinine-8-carboxylic acid], the EC50 on E. coli K12 PBP3 was over 500 µM.
On to `CCN1CCN(C(=O)N[C@@H](C(=O)N[C@H]2Cc3ccc(F)c(C(=O)O)c3OB2O)c2ccc(O)c(O)c2)C(=O)C1=O` [Example 211, (R)-3-((R)-2-(3,4-dihydroxyphenyl)-2-(4-ethyl-2,3-dioxopiperazine-1-carboxamido)acetamido)-7-fluoro-2-hydroxy-3,4-dihydro-2H-benzo[e][1,2]oxaborinine-8-carboxylic acid], for which the “P. aeruginosa PBP3 Potency” value at P. aeruginosa PBP3 was “D (D represents a potency <10 μM)”. For the same molecule, the EC50 at E. coli K12 PBP3 was under 30 µM.
Turning to `NCCN1CCN(C(=O)N[C@@H](C(=O)N[C@H]2Cc3ccc(F)c(C(=O)O)c3OB2O)c2c(F)c(F)c(O)c(O)c2Cl)C(=O)C1=O` [Example 226, (R)-3-((R)-2-(4-(2-aminoethyl)-2,3-dioxopiperazine-1-carboxamido)-2-(2-chloro-5,6-difluoro-3,4-dihydroxyphenyl)acetamido)-7-fluoro-2-hydroxy-3,4-dihydro-2H-benzo[e][1,2]oxaborinine-8-carboxylic acid], at P. aeruginosa PBP3, the “P. aeruginosa PBP3 Potency” value was “B (B represents a potency between 30 μM and 500 μM inclusive)”.
